Data on 6 molecules can be found in patent publication US12357582B2, “Hydrophobic ion pairing and flash nanoprecipitation for formation of controlled-release nanocarrier formulations” (The Trustees of Princeton University, priority 2017, dated 2025).

The nature of data set [1]: Encapsulation efficiency (ultrafiltration, BCA assay). Format: physicochemical. The following applies: LL37:SDS 1:1 PCL5k-b-PEG5k NPs.
A short description of data set [2]: Particle size and polydispersity by dynamic light scattering. Format: physicochemical. The following applies: PCL5k-b-PEG5k NPs.
The nature of data set [3]: API release from NCs by dialysis (BCA assay). Format: physicochemical. The method, then:
Drug concentrations were determined with the bicinchoninic acid (BCA) assay (Spectramax i3x, Molecular Devices) with absorbance measurements at 562 nm, using a standard curve of the same drug (unencapsulated) as the reference. API fractional release was determined by dialyzing NC sample in 100-fold 1×PBS. […] The drug concentration in each aliquot was determined by the BCA assay at 562 nm. The released fraction is the API concentration at each time point divided by the initial API concentration before dialysis (Eq. 2).
API release rates from NCs are a critical determinant of dosing frequency, in vivo active concentrations, and overall therapeutic effectiveness. The release rates of polymyxin B were assessed by enclosing NCs in an 8 kDa MWCO dialysis bag and diluting into a thousand-fold excess volume of PBS to simulate an “open sink” condition at room temperature. Encapsulated polymyxin within dialysis bags was measured over time, using the BCA assay, to determine the amount of API that had been released (FIGS. 7A, 7B, and 7C).

For data set [4] the following is noted: ambient temperature; cited from earlier work.
A short description of data set [5]: Ion-pairing screening using gentamicin API. Format: physicochemical. More on the design: key to Reprecipitation: + details reprecipitation observed; − details no reprecipitation observed; key to Organic Dissolution: ++ details complete dissolution; + details non-complete dissolution; key to Precipitation: +++: + details qualitative observations of the amount of solid formed; ++: + details qualitative observations of the amount of solid formed; + details qualitative observations of the amount of solid formed; − details no solids formed. As for the experimental part: (§1) The fifteen ion pairing (IP) reagents listed above were screened to assess if hydrophobic API salt forms would be formed and would precipitate from solution. Ion pair and API drug properties were calculated with Molinspiration software (Molinspiration Cheminformatics, Slovakia). APIs were dissolved in water at 5 mg mL^−1 concentration and mixed with IPs dissolved in water at varying concentrations to yield different API to IP ratios. The screening process determines whether a particular IP may be used with a given API for NC formation.
(§2) In the case of pre-ion pairing, API and IP are mixed in water to form a water-insoluble precipitate (referred to as an API:IP complex). The water is then removed, and the API:IP complex is dissolved into an organic solvent (along with a block copolymer) for use in the organic stream in FNP. In this case, the API:IP complex is treated as a component in the organic stream of normal FNP. The screening process for the pre-ion paired method FNP involves four sequential tests. • 1. The first test examines the solubility of the IP agent. IP is added to DI water at a concentration that would be required for a 1:1 API:IP charge ratio if the API were dissolved at 5 mg mL^−1. (In this text the ratios are presented as charge ratios of API:IP.) Substantial […] in water is required for successful ion pairing. • 2. The second test examines whether an in situ API:IP complex can be formed in a single step. For example, The second test examines whether solids precipitate upon mixing of the aqueous IP solution with an aqueous API solution. Alternatively, IP in an organic, but water miscible, solution is mixed against the aqueous API solution. The final solution is checked visually to see if precipitation has occurred. In this test, the IP solution is at a concentration such that mixing equal volumes of IP solution and API solution will form a 1:1 API to IP charge ratio. Four API:IP ratios are investigated: 200 μL API solution is mixed with 100 μL IP solution for a 1:0.5 charge ratio; 200 μL API solution is mixed with 200 μL IP solution for a 1:1 charge ratio; 200 μL API solution is mixed with 400 μL IP solution for a 1:2 charge ratio; and 200 μL API solution is mixed with 800 μL IP solution for a 1:4 charge ratio. • 3. The third test examines whether the API:IP complex can be solubilized in the organic phase for subsequent FNP NC formation. Pellets of the precipitate formed in the second test are tested to see if they are soluble in a water-miscible organic solvent such as tetrahydrofuran (THF) or more polar solvents such as dimethyl sulfoxide (DMSO) or methanol (MeOH). For example, if precipitates were formed in the second test, the mixture can be centrifuged at 20800 rcf for 20 minutes, and the aqueous supernatant can be removed in order to recover pelleted precipitate. 200 μL of organic solvent can be added to the pellet; the solution can then be mixed to determine whether the pellet dissolves. • 4. The final (fourth) test assesses if the hydrophobic API:IP complex will re-precipitates when mixed with water, e.g., upon FNP mixing with water as the antisolvent. The organic solvent containing API:IP from the third test is diluted ten-fold in water, and precipitate formation is examined. If a precipitate forms, then the construct is suitable for use in FNP. In Situ Ion Pairing
Several water-soluble counter ion salts IPs were chosen for this investigation to determine the physical properties of the counter ions required for successful complex formation (FIG. 3). A range of carboxylate and sulfonate salt IPs whose acid forms have pKa ranging 5 to −1.9 were tested, as well as salts with a wide range of solubilities and LogP values as high as 7.6 or as low as −4.92. API was dissolved at 5 mg mL^−1 in water in 1× volume, and rapidly mixed with 1× volume of dissolved IP to give a final mixture containing a 1:1 API:IP charge ratio. Mixtures were visually observed to assess if precipitates rapidly formed. […]

A short description of data set [6]: Ion-pairing screening using polymyxin B API. Format: physicochemical. More on the design: key to Reprecipitation: + details re-precipitation observed; − details no re-precipitation observed; key to Organic Dissolution: ++ details complete dissolution; + details non-complete dissolution; key to Precipitation: +++: + details qualitative observations of the amount of solid formed; ++: + details qualitative observations of the amount of solid formed; + details qualitative observations of the amount of solid formed; − details no solids formed. As for the experimental part: as §1, §2
Several water-soluble counter ion salts IPs were chosen for this investigation to determine the physical properties of the counter ions required for successful complex formation (FIG. 3). A range of carboxylate and sulfonate salt IPs whose acid forms have pKa ranging 5 to −1.9 were tested, as well as salts with a wide range of solubilities and LogP values as high as 7.6 or as low as −4.92. API was dissolved at 5 mg mL^−1 in water in 1× volume, and rapidly mixed with 1× volume of dissolved IP to give a final mixture containing a 1:1 API:IP charge ratio. Mixtures were visually observed to assess if precipitates rapidly formed.

The next data set relates to cells. In words: Lysozyme activity after release (ability to lyse cells). Format: biochemical.
[7] abbreviates: OVA with at least one charge equivalent of quaternary ammonium surfactant.

As for “LL37: cationic antibiotic peptide, 1719 Da, sequence FKRIVQRIKDFLR (nanoparticle formulation; LL37) [reference compound]”, the Encapsulation efficiency result in data set [1] was “over 95%”. Besides, the NP diameter in data set [2] (LL37 pre-ion paired with SDS 1:1 charge ratio) is given as ~120 nm.
As to Mastoparan 7 [MP7, reference compound], the “characteristic release time (time for 50% release)” value in data set [3] (MP7, NPs are MP7:SDS 1:1 PCL5k-b-PEG5k) is 2.9 h.
In the case of `CCCCCCCC/C=C\CCCCCCCC(=O)O` [Oleic acid, oleic acid], the solubility in water in data set [4] was ~3e-07 g/g.
Turning to `O=S(=O)([O-])c1ccc2ccccc2c1.[Na+]` [Sodium 2-Naphthalenesulfonate, sodium 2-naphthalenesulfonate], the Precipitation result in data set [5] (gentamicin API mixed with IP in water) and in data set [6] (polymyxin B API mixed with IP in water) was “++” throughout. For the same molecule, the Reprecipitation result in data set [5] (gentamicin:IP organic solution diluted ten-fold in water) and in data set [6] (polymyxin B:IP organic solution diluted ten-fold in water) was “−” in each case. Moreover, the “Organic Dissolution” value in data set [5] (gentamicin:IP pellet in organic solvent (THF)) and in data set [6] (polymyxin B:IP pellet in organic solvent (THF)) was “++” in each case.
As for Lysozyme [LYZ], the “LYZ released by 14 days” value is given as 20% in data set [3] (NPs with OA, 1:2 charge ratio); 10% in data set [3] (NPs with OA, 1:4 charge ratio); 50% in data set [3] (NPs with SDS, 1:1 charge ratio). Also, the “released LYZ with activity equal to LYZ that was never encapsulated” value in the data set on cells (following release from NPs, over all formulations) is on record as “up to 100%”. Also, the “released LYZ that was bioactive” value in the data set with cells (paired 1:1 with DXS) is listed as 100%; in the data set with cells (paired 1:1 with OA), 100%; with cells (paired 1:1 with SDS) it was “approximately 60%”; in the data set with cells (paired 1:2 with DXS), “approximately 60%”; with cells (paired 1:2 with OA), 100%; in the data set with cells (paired 1:2 with SDS) it was < 10%. For the same molecule, the “released LYZ that was bioactive” value with cells (paired 1:4 with DXS) is listed as “approximately 60%”; in the data set with cells (paired 1:4 with OA) it was “approximately 60%”; in the data set with cells (paired 1:4 with SDS) it was < 10%. In addition, the NP diameter in data set [2] (LYZ pre-formed with SDS or DXS) is reported as ~150 nm. In addition, the PDI in data set [2] (LYZ pre-formed with SDS or DXS) is given as < 0.2.

B1: Ovalbumin (protein, UniProt P01012 2-386, looked up)
Ovalbumin: GSIGAASMEFCFDVFKELKVHHANENIFYCPIAIMSALAMVYLGAKDSTRTQINKVVRFDKLPGFGDSIEAQCGTSVNVHSSLRDILNQITKPNDVYSFSLASRLYAEERYPILPEYLQCVKELYRGGLEPINFQTAADQARELINSWVESQTNGIIRNVLQPSSVDSQTAMVLVNAIVFKGLWEKAFKDEDTQAMPFRVTEQESKPVQMMYQIGLFRVASMASEKMKILELPFASGTMSMLVLLPDEVSGLEQLESIINFEKLTEWTSSNVMEERKIKVYLPRMKMEEKYNLTSVLMAMGITDVFSSSANLSGISSAESLKISQAVHAAHAEINEAGREVVGSAEAGVDAASVSEEFRADHPFLFCIKHIATNAVLFFGRCVSP
notes: anionic protein, 385 amino acid residues, 43,000 Da
Regarding B1, in data set [2] (setting [7]), the NP diameter was ~150 nm and the PDI is listed as < 0.2.
